Data on 18 compounds can be found in ChEMBL document CHEMBL1201862, “PubChem BioAssay data set” (2004).

SMILES strings stand for the structures. Calls of active or inactive are those of the source.

Experiment [1] deals with T1, Calpain-2 catalytic subunit (Sus scrofa, UniProt P43367).
T1 sequence (P43367 whole entry): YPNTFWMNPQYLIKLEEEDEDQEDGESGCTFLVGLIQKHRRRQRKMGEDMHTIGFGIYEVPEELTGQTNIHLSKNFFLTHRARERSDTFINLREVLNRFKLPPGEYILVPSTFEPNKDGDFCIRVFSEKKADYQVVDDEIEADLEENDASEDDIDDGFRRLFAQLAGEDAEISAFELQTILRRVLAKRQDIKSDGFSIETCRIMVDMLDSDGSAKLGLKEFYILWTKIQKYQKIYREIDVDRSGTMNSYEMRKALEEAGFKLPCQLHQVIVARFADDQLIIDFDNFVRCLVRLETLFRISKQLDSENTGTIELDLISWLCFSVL
Briefly: m-calpain protease blockers, concentration series – biochemical, fluorogenic peptide substrate, dose response (AID 1420). The experiment is classed as functional.

For experiment [2], the target named is T2, Protein RecA (Mycobacterium tuberculosis, UniProt P9WHJ3).
T2 sequence (P9WHJ3 whole entry): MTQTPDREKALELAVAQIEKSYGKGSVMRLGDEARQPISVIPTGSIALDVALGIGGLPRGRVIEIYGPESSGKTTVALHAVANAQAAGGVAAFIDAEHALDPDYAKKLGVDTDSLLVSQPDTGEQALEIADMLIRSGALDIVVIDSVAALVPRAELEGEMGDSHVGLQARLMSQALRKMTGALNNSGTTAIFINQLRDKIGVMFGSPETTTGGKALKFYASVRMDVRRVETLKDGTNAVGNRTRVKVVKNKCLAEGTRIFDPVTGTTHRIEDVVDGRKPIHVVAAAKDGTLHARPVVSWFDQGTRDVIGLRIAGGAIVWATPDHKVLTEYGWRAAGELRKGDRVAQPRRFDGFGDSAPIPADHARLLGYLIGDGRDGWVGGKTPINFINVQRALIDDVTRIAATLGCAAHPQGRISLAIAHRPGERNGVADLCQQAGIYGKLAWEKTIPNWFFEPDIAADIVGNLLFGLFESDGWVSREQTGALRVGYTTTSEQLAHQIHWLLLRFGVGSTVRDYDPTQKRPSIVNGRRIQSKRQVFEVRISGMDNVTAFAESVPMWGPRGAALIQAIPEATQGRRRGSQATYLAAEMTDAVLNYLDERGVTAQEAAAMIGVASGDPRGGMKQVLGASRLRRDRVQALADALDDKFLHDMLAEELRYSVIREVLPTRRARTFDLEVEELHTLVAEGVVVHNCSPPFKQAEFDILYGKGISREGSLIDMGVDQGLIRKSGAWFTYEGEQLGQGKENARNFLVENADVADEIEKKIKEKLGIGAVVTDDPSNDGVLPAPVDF
Briefly: Fluorescence Cell-Free Homogeneous Dose Retest to Identify Inhibitors of RecA-Intein Splicing Activity. [Related pubchem assays (depositor defined):AID2097, AID2223, AID489010, AID492950]. Format: functional.

Experiment [3] addresses T3, Replicative DNA helicase DnaB (Mycobacterium tuberculosis, UniProt P9WMR3).
T3 sequence (P9WMR3 whole entry): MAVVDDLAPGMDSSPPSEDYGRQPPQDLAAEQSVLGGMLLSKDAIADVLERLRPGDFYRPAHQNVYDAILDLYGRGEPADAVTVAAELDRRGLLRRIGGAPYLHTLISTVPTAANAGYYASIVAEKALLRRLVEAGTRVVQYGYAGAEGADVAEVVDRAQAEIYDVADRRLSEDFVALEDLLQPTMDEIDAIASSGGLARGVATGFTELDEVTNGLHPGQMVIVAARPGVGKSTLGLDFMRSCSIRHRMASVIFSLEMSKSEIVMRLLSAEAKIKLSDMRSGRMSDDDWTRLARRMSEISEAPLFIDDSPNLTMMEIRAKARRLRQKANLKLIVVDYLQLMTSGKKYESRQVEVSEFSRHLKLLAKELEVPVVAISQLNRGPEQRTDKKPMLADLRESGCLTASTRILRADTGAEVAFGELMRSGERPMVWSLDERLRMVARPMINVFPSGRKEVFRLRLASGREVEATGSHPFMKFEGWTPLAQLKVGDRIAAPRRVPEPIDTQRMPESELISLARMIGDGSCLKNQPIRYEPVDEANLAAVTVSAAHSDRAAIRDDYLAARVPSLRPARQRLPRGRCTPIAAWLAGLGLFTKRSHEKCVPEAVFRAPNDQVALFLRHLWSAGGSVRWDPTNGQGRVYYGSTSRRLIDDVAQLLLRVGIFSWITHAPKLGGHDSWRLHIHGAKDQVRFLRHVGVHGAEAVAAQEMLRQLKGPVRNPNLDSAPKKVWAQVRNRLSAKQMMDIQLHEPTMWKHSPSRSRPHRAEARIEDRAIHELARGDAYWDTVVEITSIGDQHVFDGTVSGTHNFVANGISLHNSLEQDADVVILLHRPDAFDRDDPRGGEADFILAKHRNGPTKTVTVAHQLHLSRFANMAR
Nature of the experiment: DnaB intein splicing inhibitors, dose response, biochemical, cell-free fluorescence (AID 449749). Format: functional.

Experiment [4] concerns Vero. Briefly: cells. The experiment is classed as functional. The following applies: Chlorocebus sabaeus.
The nature of experiment [5]: reduction of Shn3 3'UTR-driven luciferase in osteoblasts – cell-based, Clone20 osteoblasts, firefly luciferase, cherry-picked, dose response (AID 624132).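 Also: firefly luciferase luminescence from reporter carrying the Shn3 3'UTR in osteoblasts.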 The experiment is classed as functional.
The subject of experiment [6] is INS1. Briefly: INS-1E survival protection against cytokine death – cell-based, luminescence, retest, dose response (AID 449756).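 Also: cell death triggered by IL-1 beta plus TNF-alpha plus IFN-gamma mixture; protective hits raise ATP signal compared with cytokine alone wells.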 The experiment is classed as functional. As to conditions: Rattus norvegicus.
Experiment [7] deals with T4, Heat shock factor protein 1 (Mus musculus, UniProt P38532).
T4 sequence (P38532 whole entry): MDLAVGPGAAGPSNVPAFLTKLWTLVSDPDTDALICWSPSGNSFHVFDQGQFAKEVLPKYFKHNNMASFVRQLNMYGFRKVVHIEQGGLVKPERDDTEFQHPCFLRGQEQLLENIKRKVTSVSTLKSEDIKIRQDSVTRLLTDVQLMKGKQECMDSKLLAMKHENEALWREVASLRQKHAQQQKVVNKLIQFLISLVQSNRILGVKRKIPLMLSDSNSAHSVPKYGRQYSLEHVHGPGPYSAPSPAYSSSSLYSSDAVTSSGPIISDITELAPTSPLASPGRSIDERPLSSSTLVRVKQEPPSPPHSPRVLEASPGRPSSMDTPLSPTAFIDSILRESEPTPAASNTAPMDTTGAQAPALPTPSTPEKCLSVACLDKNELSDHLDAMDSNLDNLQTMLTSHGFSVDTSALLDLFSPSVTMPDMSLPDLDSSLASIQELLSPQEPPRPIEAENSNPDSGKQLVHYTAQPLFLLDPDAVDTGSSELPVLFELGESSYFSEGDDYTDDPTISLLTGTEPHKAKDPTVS
Nature of the experiment: decrease of HSF1-responsive luciferase luminescence – cell-based, NIH3T3, dose retest, confirmation (AID 2382).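 Also: NIH3T3 fibroblasts with HSF1-driven luciferase reporter stressed by proteasome inhibitor MG132; luminescence from HSF1-driven luciferase expression after 8 hours of MG132 stress.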 Format: functional.

Experiment [8] is described as follows: loss of viability in HepG2 cells – cell-based, CellTiter-Glo, cherry-picked, cytotoxicity control for Shn3 inhibitor project, dose response (AID 624134). The experiment is classed as functional.
A short description of experiment [9]: non-specific 3'UTR reporter inhibition in Clone20-Shn3RL – cell-based, Renilla luciferase, cherry-picked, counter-screen for Shn3 inhibitor project, dose response (AID 624133). Format: functional. For orientation: A counterscreen serves to expose hits that act by an unwanted route or on another target.
Experiment [10] relates to Streptococcus. Briefly: GAS UMAA2166 growth inhibition – luminescence, BacTiterGlo, counter-screen for streptokinase expression inhibitor project, dose response (AID 1915).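 Also: potency for reduction of bacterial viability or growth.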 Format: functional, organism-based.
Experiment [11] has as its system Streptococcus sp. 'group A'. Briefly: Streptococcus pyogenes SK(-)GAS viability under kanamycin – luminescence, BacTiterGlo, confirmation, counter-screen for streptokinase expression inhibitor project, dose response (AID 1900). Format: functional, organism-based.
Experiment [12] has as its target T5, Streptokinase A (Streptococcus pyogenes serotype M1, UniProt P10520).
T5 sequence (P10520 whole entry): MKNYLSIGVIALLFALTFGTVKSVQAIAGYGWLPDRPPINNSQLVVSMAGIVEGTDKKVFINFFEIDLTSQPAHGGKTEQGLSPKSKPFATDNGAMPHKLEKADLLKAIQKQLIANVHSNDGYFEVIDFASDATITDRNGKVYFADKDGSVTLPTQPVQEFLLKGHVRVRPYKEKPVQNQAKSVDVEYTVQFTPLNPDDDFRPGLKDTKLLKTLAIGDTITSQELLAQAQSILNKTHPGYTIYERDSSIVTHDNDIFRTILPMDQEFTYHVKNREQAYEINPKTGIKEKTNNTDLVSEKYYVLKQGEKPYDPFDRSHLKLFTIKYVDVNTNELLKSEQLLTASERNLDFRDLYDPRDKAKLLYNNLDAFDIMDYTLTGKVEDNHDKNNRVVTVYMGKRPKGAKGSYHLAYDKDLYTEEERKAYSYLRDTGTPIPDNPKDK
Nature of the experiment: viability-normalized secreted streptokinase activity reduction – plasminogen activation absorbance, OD405, dose response (AID 1914).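 Also: secreted streptokinase activity via plasminogen activation per viability signal from cell pellet.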 Format: functional, Streptococcus pyogenes M1 GAS.

In general, IC50 refers to the concentration that gives 50% inhibition. Low values mean greater potency, high ones weaker potency. Usually EC50 stands for the midpoint of the concentration-response curve. Broadly, the AC50 is the concentration at which the activity in the assay is half-maximal. Broadly, the CC50 is the concentration giving 50% cytotoxicity.

Take `CC(C)CCNC(=O)C12CN(Cc3ccccc3)CC1C(c1ccc([N+](=O)[O-])cc1)=NO2` (centres undefined): the concentration for half-maximal inhibition (IC50) in experiment [1] is 7.38 µM (not active).

Regarding `O=C(CCl)N1N=C(c2ccco2)CC1c1ccco1` (centres undefined), in [2], the EC50 is 9.97 µM (active). For the same compound, in experiment [3], the AC50 is > 380 µM (inactive). Moreover, the CC50 in experiment [4] was 9.82 µM (active). Turning to `Cc1cccc2c(C(=O)N3CCN(c4ccccn4)CC3)cc(-c3cccc(Br)c3)nc12`, the AC50 in experiment [5] is 6.48 µM (active); in experiment [6] it was 3.73 µM (active); in experiment [8], 45.4 µM (active). The EC50 in [7] is on record as > 195 µM (not active). On to `O=C(NNC(=O)c1cccc(S(=O)(=O)N2CCc3ccccc32)c1)c1ccccc1`, for which the half-maximal activity concentration (AC50) in experiment [5] was 1.52 µM (active); in [9], 3.89 µM (active); in experiment [8], 46.2 µM (active).

As to `O=C(OCCN1C(=O)c2ccccc2C1=O)c1ccc(S(=O)(=O)N2CCCCCC2)cc1`, the concentration for half-maximal inhibition (IC50) in experiment [1] was > 50 µM (not active). As to `Nn1c(SCC(=O)NC(=O)Nc2ccc3c(c2)OCCO3)nnc1C1CC1`, the 50% inhibitory concentration (IC50) in experiment [1] is on record as 9.49 µM (not active).

As to `Cc1cc(C)c(S(=O)(=O)Nc2ccc3c(c2)CCC3)c(C)c1`, the IC50 in experiment [1] is reported as 11.4 µM (not active). Regarding `CC(C)Nc1nnc(Sc2ccc(Cl)cc2[N+](=O)[O-])s1`, the concentration for half-maximal inhibition (IC50) in experiment [1] was 4.91 µM (not active). For the same compound, the concentration for a half-maximal effect (EC50) in experiment [7] is listed as > 195 µM (not active). On to `CCCN(CCC)C(=O)CC(c1ccccc1)c1cc(Br)ccc1O` (centres undefined), for which the half-maximal inhibitory concentration (IC50) in [1] was 16 µM (not active). On the same count and under the same terms, the result for `CC(C)(C)c1ccc(OCCNC(=S)Nc2ccccc2)cc1` reads 8.08 µM (not active). As to `COc1cccc(NC(S)=NN=C2CCCCCC2)c1`, the results for the half-maximal effective concentration (EC50) in [10], in [11] and in [12] were > 150 µM (not active), 17.5 µM (active) and > 150 µM (not active), respectively. The 50% inhibitory concentration (IC50) in experiment [1] is recorded as > 50 µM (not active). In the case of `Cc1ccccc1N=C(S)Nc1cccc2cnccc12`, the AC50 in experiment [6] is > 260 µM (inactive). The same measure, in the same setting: the result for `Cc1ccc(C)c(-c2csc(NC(=O)C3=COCCO3)n2)c1` reads 7.19 µM (active).

As to `CC(C)(C)N(Cc1ccccc1)C(=O)CCc1ccccc1`, the IC50 in experiment [1] was 32.5 µM (not active). Regarding `CC(=O)N1CCN(C(=O)CCc2cc(C(C)(C)C)c(O)c(C(C)(C)C)c2)CC1`, the AC50 in experiment [5] is 4.46 µM (active); in [9] it was 14.5 µM (active). As to `CC1C(=O)N(Cc2cn(CCC3OCCCO3)nn2)CCS(=O)(=O)N1Cc1ccc(-c2ccc(Cl)c(Cl)c2)cc1` (centres undefined), the values for the AC50 in experiment [5], in experiment [9] and in experiment [8] were 3.39 µM (active), 2.7 µM (active) and > 70 µM (inactive), respectively. The corresponding values for `C[C@H](NC(=O)c1ncn2c1c(O)nc1ccc(Br)cc12)c1ccccc1` are 8.76 µM (active), 16.2 µM (active) and 9.3 µM (active). Regarding `C/C(=N\NC(N)=S)c1ccncc1`, the AC50 in [6] was > 260 µM (inactive).
